The assay deals with T1, human SNP variant (S309L) of GPR119 (Homo sapiens, UniProt Q8TDV5, S309L).
T1 construct: expressed in transfected cells; host or cells: HEK293 Flp-In (Invitrogen)
T1 sequence (Q8TDV5 1-335 S309L): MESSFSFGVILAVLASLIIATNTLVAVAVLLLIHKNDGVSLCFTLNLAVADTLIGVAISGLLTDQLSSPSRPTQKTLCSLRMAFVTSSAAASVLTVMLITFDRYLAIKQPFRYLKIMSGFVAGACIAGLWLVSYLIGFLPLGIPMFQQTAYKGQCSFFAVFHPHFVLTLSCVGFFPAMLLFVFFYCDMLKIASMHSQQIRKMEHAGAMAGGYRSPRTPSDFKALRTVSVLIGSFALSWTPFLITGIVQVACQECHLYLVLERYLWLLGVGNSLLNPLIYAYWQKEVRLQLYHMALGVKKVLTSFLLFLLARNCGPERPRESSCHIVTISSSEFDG
Put plainly: GPR119 signaling, cAMP homogenous time resolved fluorescence (HTRF) assay. It counts as cell-based. The note with it: HEK293 Flp-In cells stably transfected with human GPR119 (S309L), HTRF kit. The source says: Measurement of GPR119 Signaling Using a Cyclic AMP (cAMP) Homogenous Time Resolved Fluorescence (HTRF) Assay
Chinese hamster ovary (CHO) cell lines stably transfected with the permissive guanine nucleotide binding protein alpha 15 (Gals) and murine GPR119 were maintained in DMEM media containing FBS, penicillin-streptomycin, puromycin, and G418 (geneticin). Alternatively, human embryonic kidney (HEK)293 Flp-In cells (Invitrogen, Carlsbad, Calif.) were stably transfected with a human SNP variant (S309L) of GPR119 and maintained in DMEM media containing FBS, penicillin-streptomycin, and hygromycin. Agonist activation of the GPR119 receptor was measured in receptor transfected cells described above, treated with compounds of this invention, using a commercial homogenous time resolved fluorescence (HTRF) kit for measurement of cAMP (CisBio, Bedford, Mass.). The assay was performed in 96-well half-volume plates (murine) or 384-well plates (human) following the manufacturers instructions. Briefly, suspended cells were incubated with a dose titration of test compound at RT for 60 min, lysed, and incubated with HTRF reagents for an additional 60 min. The plate was read using an Envision multilabel reader (Perkin Elmer) adjusted to read time resolved fluorescence and the cAMP concentrations were extrapolated from a cAMP calibration curve. […] The concentration of test compound required to stimulate a half-maximal response (EC50), and efficacy as compared to an internal agonist control, was determined from a sigmoidal 4-parameter curve fit of the resulting plot of normalized activity versus compound concentration.
Background: Time-resolved FRET reads energy transfer from a long-lived donor to a nearby acceptor.
In general, EC50 refers to the concentration giving half of the maximal effect. Higher therefore signals lower potency in that assay. In the case of `Cc1cnc(N2CCC([C@H]3C[C@@H]3COCc3ccc(S(C)(=O)=O)cc3)CC2)nc1` [Example 6, 5-methyl-2-(4-((1R,2S)-2-(((4-(methylsulfonyl)benzyl)oxy)methyl)cyclopropyl)piperidin-1-yl)pyrimidine], the response was half-maximal at 7.1 nM (EC50). In the case of `CC1(OC(=O)N2CCC([C@H]3C[C@@H]3COCc3ccc(S(C)(=O)=O)c(F)c3)CC2)CC1` [Example 17, 1-methylcyclopropyl 4-((1R,2S)-2-(((3-fluoro-4-(methylsulfonyl)benzyl)oxy)methyl)cyclopropyl)piperidine-1-carboxylate], the EC50 is 4.6 nM. To `CS(=O)(=O)c1ccc(COC[C@H]2C[C@@H]2C2CCN(c3ncc(Cl)cn3)CC2)cc1` [Example 2, 5-chloro-2-(4-((1R,2S)-2-(((4-(methylsulfonyl)benzyl)oxy)methyl)cyclopropyl)piperidin-1-yl)pyrimidine] belongs 1.2 nM; to `CS(=O)(=O)c1ccc(OCC[C@@H]2C[C@H]2C2CCN(c3nc(C4CCC4)no3)CC2)nc1` [Example 114, 3-cyclobutyl-5-(4-((1S,2S)-2-(2-((5-(methylsulfonyl)pyridin-2-yl)oxy)ethyl)cyclopropyl)piperidin-1-yl)-1,2,4-oxadiazole], 4.8 nM; to `CC(C)OC(=O)N1CCC([C@H]2C[C@@H]2COCc2ccc(S(C)(=O)=O)c(F)c2)CC1` [Example 20, isopropyl 4-((1R,2S)-2-(((3-fluoro-4-(methylsulfonyl)benzyl)oxy)methyl)cyclopropyl)piperidine-1-carboxylate], 5.8 nM. As to `CS(=O)(=O)c1ccc(COC[C@H]2C[C@@H]2C2CCN(c3ncc(Cl)cn3)CC2)nc1` [Example 1, 5-chloro-2-(4-((1R,2S)-2-(((5-(methylsulfonyl)pyridin-2-yl)methoxy)methyl)cyclopropyl)piperidin-1-yl)pyrimidine], the EC50 amounted to 3.8 nM. To `CS(=O)(=O)c1ccc(OCC[C@@H]2C[C@H]2C2CCN(c3nc(C4CC4)no3)CC2)nc1` [Example 112, 3-cyclopropyl-5-(4-((1S,2S)-2-(2-((5-(methylsulfonyl)pyridin-2-yl)oxy)ethyl)cyclopropyl)piperidin-1-yl)-1,2,4-oxadiazole] belongs 6.1 nM. To `CC1(OC(=O)N2CCC([C@H]3C[C@@H]3COCc3ccc(S(C)(=O)=O)cc3)CC2)CC1` [Example 18, 1-methylcyclopropyl 4-((1R,2S)-2-(((4-(methylsulfonyl)benzyl)oxy)methyl)cyclopropyl)piperidine-1-carboxylate] belongs 6.4 nM; to `Cc1nnc(-c2ccc(OCC[C@@H]3C[C@H]3C3CCN(c4ncc(Cl)cn4)CC3)cc2F)o1` [Example 64, 2-(4-(2-((1S,2S)-2-(1-(5-chloropyrimidin-2-yl)piperidin-4-yl)cyclopropyl)ethoxy)-2-fluorophenyl)-5-methyl-1,3,4-oxadiazole], 8.4 nM; to `CC(C)c1noc(N2CCC([C@H]3C[C@@H]3COCc3ccc(S(C)(=O)=O)cc3)CC2)n1` [Example 21, 3-isopropyl-5-(4-((1R,2S)-2-((4-(methylsulfonyl)benzyloxy)methyl)cyclopropyl)piperidin-1-yl)-1,2,4-oxadiazole], 3.8 nM. The compound `CS(=O)(=O)c1ccc(NCC[C@H]2C[C@@H]2C2CCN(c3ncc(Cl)cn3)CC2)cc1` [Example 128, N-(2-((1R,2S)-2-(1-(5-chloropyrimidin-2-yl)piperidin-4-yl)cyclopropyl)ethyl)-4-(methylsulfonyl)aniline] returned an EC50 of 6.7 nM. In turn, `CCCc1noc(N2CCC([C@@H]3C[C@H]3CCOc3ccc(S(C)(=O)=O)cn3)CC2)n1` [Example 113, 5-(4-((1S,2S)-2-(2-((5-(methylsulfonyl)pyridin-2-yl)oxy)ethyl)cyclopropyl)piperidin-1-yl)-3-propyl-1,2,4-oxadiazole] yielded an EC50 of 7.9 nM. Take `COCc1cnc(N2CCC([C@H]3C[C@@H]3CCNc3ncc(-n4cnnn4)cn3)CC2)nc1` [Example 124, N-(2-((1R,2S)-2-(1-(5-(methoxymethyl)pyrimidin-2-yl)piperidin-4-yl)cyclopropyl)ethyl)-5-(1H-tetrazol-1-yl)pyrimidin-2-amine]: a half-maximal response (EC50) required 5.2 nM.

`CC(C)c1noc(N2CCC([C@H]3C[C@@H]3COCc3ccc(S(C)(=O)=O)c(F)c3)CC2)n1` [Example 22, 5-(4-((1R,2S)-2-(((3-fluoro-4-(methylsulfonyl)benzyl)oxy)methyl)cyclopropyl)piperidin-1-yl)-3-isopropyl-1,2,4-oxadiazole] had an EC50 of 3.2 nM. To `CC(C)OC(=O)N1CCC([C@H]2C[C@@H]2COCc2ccc(S(C)(=O)=O)cc2)CC1` [Example 19, isopropyl 4-((1R,2S)-2-(((4-(methylsulfonyl)benzyl)oxy)methyl)cyclopropyl)piperidine-1-carboxylate] belongs 9.1 nM.

For the compound `CS(=O)(=O)c1ccc(COC[C@H]2C[C@@H]2C2CCN(C(=O)OC3CC3)CC2)cc1F` [Example 15, cyclopropyl 4-((1R,2S)-2-(((3-fluoro-4-(methylsulfonyl)benzyl)oxy)methyl)cyclopropyl)piperidine-1-carboxylate], the half-maximal effective concentration (EC50) was 2.4 nM.

Source of the values: patent publication US20150274664A1 (MERCK SHARP & DOHME CORP., priority 2012, published 2015).
